Test results as given in patent publication US20210162091A1, “WASH-DURABLE, FLUID ABSORBENT SUBSTRATE WITH ANTIMICROBIAL PROPERTIES AND/OR IMPROVED WASHABILITY, AND HYGIENE PRODUCT SUCH AS REUSABLE SANITARY NAPKIN” (Livinguard AG, priority 2015, published 2021).

Legend:
[1] = test system: fungi (Candida albicans and Aspergillus niger); experiment: Antimicrobial performance against fungi (AATCC 100:2012, summary in words); format: cell-based; conditions: single agent, 6% o.w.f. chemical
Description: (§1) All microbiological tests were performed with cultures of the bacteria Escherichia coli American Type Culture Collection (ATCC) 25922, Staphylococcus aureus ATCC 6538, Pseudomonas aeruginosa ATCC 15442, Salmonella enterica ATCC 10708, and of the fungi Candida albicans ATCC 10231, and Aspergillus niger ATCC 16404.

[2] = test system: bacteria (Escherichia coli, Staphylococcus aureus, Pseudomonas aeruginosa, and Salmonella enterica); experiment: Antimicrobial performance against bacteria (AATCC 100:2012, summary in words); format: cell-based; conditions: single agent, 6% o.w.f. chemical
Description: as §1

| Compound | Efficiency for killing fungi ([1]; adhered to polyester) | Efficiency for killing bacteria ([2]; adhered to polyester) | Efficiency for killing fungi ([1]; adhered to cotton) | Efficiency for killing bacteria ([2]; adhered to cotton) |
| --- | --- | --- | --- | --- |
| CCCCCCCCCCCCCCCCCC[N+](C)(C)CCC[Si](OC)(OC)OC [dimethyloctadecyl[3-(trimethoxysilyl)propyl] ammonium chloride] | not efficient for killing fungi | about equally efficient in killing bacteria |  |  |
| CCCC1COC(Cn2cncn2)(c2ccc(Cl)cc2Cl)O1 (stereo not drawn) [propiconazole, reference compound] | works well against fungi | about as efficient against bacteria as silver and quaternary ammonium organosilane | efficient for killing fungi | not efficient for killing bacteria |
| polyhexamethylene biguanide [PHMB] |  |  | perform poorly | about equally efficient for killing bacteria |
| silver | not efficient for killing fungi | about equally efficient in killing bacteria | perform poorly | about equally efficient for killing bacteria |
